Source: paper PMC7139549, “TLD1433 Photosensitizer Inhibits Conjunctival Melanoma Cells in Zebrafish Ectopic and Orthotopic Tumour Models” (Cancers, 2020)
Like-named read-outs stand apart in the source and are kept apart here.

Experiments:
Assay type in all cases: cell-based, Human
[1] = tested on: OMM1 uveal melanoma cell line; assay: SRB cell viability assay, OMM1
Experimental: (§1) TLD1433 is known to generate reactive oxygen species (ROS) with high quantum efficacy in many cancer cell lines. However, there is no report of the in vitro toxicity of this compound in eye melanoma (UM) cell lines. We determined the cell viability of three conjunctival melanoma cell lines (CRMM1, CRMM2 and CM2005.1), and three uveal melanoma cell lines (OMM1, OMM2.5, MEL270) in the presence of TLD1433, both in the dark or under green light irradiation (21 mW/cm^2, 19 J/cm^2, 520 nm, 15 min), and compared this viability to epidermoid carcinoma A431 and cutaneous melanoma A375 cell lines under the same conditions. The protocol used was based on previous work from the Bonnet group, and differed slightly from recommendations from McFarland et al.. […] The effective concentration (EC50) values, i.e., the concentration required to reduce cell viability by 50% compared to untreated wells, were assessed by fitting the dose-response curves with a Hill equation. The phototoxicity index (PI), defined as the ratio of the dark EC50 to the light EC50, was also calculated and represents the amplification of TLD1433 activity with a light trigger. […]
(§2) Figure 2 Cell viability after TLD1433 treatment of eight tumour cell lines (CRMM1, CRMM2, CM2005.1, OMM1, OMM2.5, MEL270, A431, A375). […] The absorbance of Sulforhodamine B in solution was measured at 520 nm. […]
(§3) At day 0, cells were detached using 1mL of trypsin, resuspended in 4 mL of media and transferred to a 15 mL corning falcon tube. Cells were counted using trypan blue and BioRad® TC20™ automated cell counter (Figure 11). Dilutions of 6000 (CRMM1), 6000 (CRMM2), 8000 (CM2005.1), 6000 (OMM1), 6000 (OMM2.5), 6000 (MEL270) 8000 (A431), and 4000 (A375) cells/well were calculated from each cell suspension at a final volume of 6 mL using the following formula: Vc=(Vt×10C)/Lc where Vt = total volume of solution, C = number of cells per well/per 100 μL and Lc = live cells count (cells/mL). […] Next day, the dye was dissolved using Tri-base (0.25%) and absorbance of SRB at 510 nm was recorded from each well using a Tecan plate reader. […]

[2] = tested on: MEL270 uveal melanoma cell line; assay: SRB cell viability assay, MEL270
Experimental: as §1, §2, §3

CM cells = assay: SRB cell viability assay, CM cells; settings: dark EC50 to light EC50
Experimental: TLD1433 is known to generate reactive oxygen species (ROS) with high quantum efficacy in many cancer cell lines. However, there is no report of the in vitro toxicity of this compound in eye melanoma (UM) cell lines. We determined the cell viability of three conjunctival melanoma cell lines (CRMM1, CRMM2 and CM2005.1), and three uveal melanoma cell lines (OMM1, OMM2.5, MEL270) in the presence of TLD1433, both in the dark or under green light irradiation (21 mW/cm^2, 19 J/cm^2, 520 nm, 15 min), and compared this viability to epidermoid carcinoma A431 and cutaneous melanoma A375 cell lines under the same conditions. […] The phototoxicity index (PI), defined as the ratio of the dark EC50 to the light EC50, was also calculated and represents the amplification of TLD1433 activity with a light trigger. […]
At day 0, cells were detached using 1mL of trypsin, resuspended in 4 mL of media and transferred to a 15 mL corning falcon tube. Cells were counted using trypan blue and BioRad® TC20™ automated cell counter (Figure 11). Dilutions of 6000 (CRMM1), 6000 (CRMM2), 8000 (CM2005.1), 6000 (OMM1), 6000 (OMM2.5), 6000 (MEL270) 8000 (A431), and 4000 (A375) cells/well were calculated from each cell suspension at a final volume of 6 mL using the following formula: Vc=(Vt×10C)/Lc where Vt = total volume of solution, C = number of cells per well/per 100 μL and Lc = live cells count (cells/mL). […]

With `Cc1ccnc(-c2cc(C)ccn2)c1.Cc1ccnc(-c2cc(C)ccn2)c1.[Cl-].[Cl-].[Ru+2].c1csc(-c2ccc(-c3ccc(-c4nc5c6cccnc6c6ncccc6c5[nH]4)s3)s2)c1` [TLD1433] the EC50 ([1]; OMM1, dark, 24 h treatment, SRB, read-out: EC50, dark) was 1400 nM, the EC50 ([1]; OMM1, green light 520 nm, 15 min, 21 mW/cm^2, 19 J.cm^−2, DLI 24 h, read-out: EC50,light) was 14 nM and the “PI (photo index)” value ([1]; OMM1, ratio of dark and light EC50, 19 J.cm^−2 green light) was 100. For the same compound, the EC50 ([2]; MEL270, dark, 24 h treatment, SRB, read-out: EC50, dark) was 1100 nM, the EC50 ([2]; MEL270, green light 520 nm, 15 min, 21 mW/cm^2, 19 J.cm^−2, DLI 24 h, read-out: EC50,light) was 10 nM and the “PI (photo index)” value ([2]; MEL270, ratio of dark and light EC50, 19 J.cm^−2 green light) was 110. For the same compound, the PI (CM cells) was over 140.
